According to PMC6272127, “Synthesis, Antiproliferative Activity and Molecular Properties Predictions of Galloyl Derivatives” (Molecules, 2015):
≈ marks a conversion by molar mass, not a printed value. Like-named read-outs stand apart in the source and are kept apart here.

Columns and labels:
[1] = test system: NCI-H460 (lung, non-small cells); assay: cells; assay type: cell-based; conditions: for GI50: SRB; for TGI: NCI-H460, total growth inhibition, 48 h
Description: (§1) The experiments were performed in triplicate.

[2] = test system: NCI-ADR/RES (breast expressing the multiple drug resistance phenotype); assay: cells; assay type: cell-based; conditions: for GI50: SRB
Description: as §1

PC-3 (prostate) = assay: cells; assay type: cell-based; conditions: for GI50: PC-3, 48 h, SRB; for TGI: PC-3, total growth inhibition
Description: as §1

786-0 (renal) = assay: cells; assay type: cell-based; conditions: for TGI: 786-0, total growth inhibition, 48 h; for CC50 / GI50: 786-0, 48 h; for CC50: read-out: LC50; for GI50: SRB
Description: as §1

K-562 (leukemia) = assay: cells; assay type: cell-based; conditions: for GI50: K-562, 48 h, SRB
Description: as §1

[3] = test system: ten human tumor cell lines; assay: Anticancer assay in vitro (sulforhodamine B), statements over the panel of cell lines; assay type: cell-based; conditions: for cytotoxic efficacy: OVCAR-3 and K-562 cell lines
Description: as §1

HaCaT (keratinocytes) = assay: Anticancer assay in vitro (sulforhodamine B), HaCaT; assay type: cell-based; conditions: 48 h; for GI50: SRB; for TGI: total growth inhibition
Description: as §1

U251 (glioma, CNS) = assay: cells; conditions: for TGI: U251, total growth inhibition, 48 h
Description: The GI50 values (growth inhibitory activity) (Table 1) refer to the drug concentration that produces a 50% reduction of cellular growth compared with the untreated control cells. The TGI (cytostatic activity) and LC50 (cytotoxic activity) values (Table 2) refer to the drug concentration required for total growth inhibition and killing 50% of the cells, respectively.
The synthesized compounds were assessed in the following ten human tumor cell lines from various tissues kindly provide by the National Cancer Institute (Frederick, MD, USA): U251 (glioma, CNS), MCF-7 (breast), NCI-ADR/RES (breast expressing the multiple drug resistance phenotype), 786-0 (renal), NCI-H460 (lung, non-small cells), PC-3 (prostate), OVCAR-3 (ovarian), HT-29 (colon), K-562 (leukemia) and HaCaT (keratinocytes). Stock cultures were grown in media containing 5 mL of RPMI 1640 (Gibco BRL) supplemented with 5% fetal bovine serum. Gentamicin ([…]) was added to the experimental cultures. Cells in 96-well plates (100 µL cells/well) were exposed to sample concentrations in DMSO/RPMI (0.25, 2.5, 25, and 250 µg/mL) at 37 °C and 5% CO2 for 48 h. […] Next, cells were fixed with 50% trichloroacetic acid, and cell proliferation was determined by spectrophotometric quantification (540 nm) of cellular protein content employing the sulforhodamine B assay. Doxorubicin (0.025–25 µg/mL) was used as a positive control. Three measurements were obtained: first at time point zero (T0, at the beginning of incubation) and then 48 h post-incubation for both the compound-free (C) and tested (T) cells. Cell proliferation was determined using the equation 100 × [(T − T0)/C − T0]. A cytostatic effect was observed when T ≥ T0, while a cytocidal effect occurred when T < T0. The experiments were performed in triplicate.

OVCAR-3 (ovarian) = assay: Anticancer assay in vitro (sulforhodamine B), OVCAR-3; assay type: cell-based; conditions: for TGI: OVCAR-3, total growth inhibition, 48 h; for GI50: SRB
Description: as §1

HT-29 (colon) = assay: Anticancer assay in vitro (sulforhodamine B), HT-29; assay type: cell-based; conditions: for TGI: HT-29, total growth inhibition, 48 h; for GI50: SRB
Description: as §1

MCF-7 (breast) = assay: Anticancer assay in vitro (sulforhodamine B), MCF-7; assay type: cell-based; conditions: for GI50: MCF-7, 48 h, SRB
Description: as §1

[4] = Homo sapiens, NCI/ADR-RES, 48 h
[5] = NCI/ADR-RES, total growth inhibition, 48 h
[6] = K-562, total growth inhibition, 48 h
[7] = MCF-7, total growth inhibition, 48 h

COC(=O)c1cc(O)c(O)c(O)c1 [Compound 2, Methyl gallate]
CC50 ([1]; Homo sapiens, NCI-H460, 48 h, read-out: LC50): 34.9 µg/mL (≈ 190 µM)
GI50 ([1]; Homo sapiens, NCI-H460, 48 h): 0.13 µM
TGI [1]: 7.97 µg/mL (≈ 43.3 µM)
CC50 ([2]; Homo sapiens, NCI/ADR-RES, 48 h, read-out: LC50): 30.3 µg/mL
GI50 [2, 4]: 0.12 µM
TGI [2, 5]: 3.62 µg/mL
GI50 (PC-3 (prostate); Homo sapiens): 0.57 µM
TGI (PC-3 (prostate); 48 h): 13.10 µg/mL (≈ 71.1 µM)
TGI (786-0 (renal)): 8.62 µg/mL (≈ 46.8 µM)
CC50 (786-0 (renal); Homo sapiens): 31.4 µg/mL (≈ 170 µM)
GI50 (786-0 (renal); Homo sapiens): 0.65 µM
GI50 (K-562 (leukemia); Homo sapiens, K562): 0.31 µM
TGI (K-562 (leukemia); [6]): 5.67 µg/mL
TGI values over the cell lines tested ([3]; range over all human tumor cell lines): 1.59 to 16.74 µM
GI50 (HaCaT (keratinocytes); Homo sapiens): 0.26 µM
TGI (HaCaT (keratinocytes)): 16.74 µg/mL (≈ 90.9 µM)
GI50 (U251 (glioma, CNS); Homo sapiens, U-251, 48 h): 0.16 µM
CC50 (U251 (glioma, CNS); Homo sapiens, U-251, 48 h, read-out: LC50): 29.2 µg/mL (≈ 159 µM)
TGI (U251 (glioma, CNS)): 4.10 µg/mL (≈ 22.3 µM)
CC50 (OVCAR-3 (ovarian); Homo sapiens, OVCAR-3, 48 h, read-out: LC50): 33.7 µg/mL
TGI (OVCAR-3 (ovarian)): 1.59 µg/mL (≈ 8.63 µM)
TGI (HT-29 (colon)): 8.52 µg/mL (≈ 46.3 µM)
CC50 (HT-29 (colon); Homo sapiens, HT-29, 48 h, read-out: LC50): 30.6 µg/mL (≈ 166 µM)
GI50 (HT-29 (colon); Homo sapiens, HT-29, 48 h): 0.49 µM
GI50 (MCF-7 (breast); Homo sapiens, MCF7): 0.16 µM
TGI (MCF-7 (breast); [7]): 5.12 µg/mL

O=C(N/N=C/c1ccccc1)c1cc(O)c(O)c(O)c1 [Compound 4, N'-(Benzylidene)galloyl hydrazide]
GI50 ([1]; Homo sapiens, NCI-H460, 48 h): 11.2 µM
GI50 [2, 4]: 7.16 µM
GI50 (PC-3 (prostate); Homo sapiens): 5.07 µM
GI50 (786-0 (renal); Homo sapiens): 9.06 µM
GI50 (K-562 (leukemia); Homo sapiens, K562): 9.96 µM
GI50 ([3]; Homo sapiens, bound or range over all (for 4: nine) human tumor cell lines, read-out: GI50 values over the cell lines tested): 1.24 to 9.96 µM
GI50 (HaCaT (keratinocytes); Homo sapiens): 8.29 µM
GI50 (U251 (glioma, CNS); Homo sapiens, U-251, 48 h): 7.8 µM
GI50 (OVCAR-3 (ovarian); Homo sapiens, OVCAR-3, 48 h): 1.24 µM
TGI (OVCAR-3 (ovarian)): 29.61 µg/mL (≈ 109 µM)
GI50 (HT-29 (colon); Homo sapiens, HT-29, 48 h): 7.53 µM
GI50 (MCF-7 (breast); Homo sapiens, MCF7): 5.55 µM
TGI (MCF-7 (breast); [7]): 23.54 µg/mL

O=C(N/N=C/c1ccc([N+](=O)[O-])cc1)c1cc(O)c(O)c(O)c1 [Compound 6, N'-(4-Nitrobenzylidene)galloyl hydrazide]
GI50 [2, 4]: 8.46 µM
GI50 (PC-3 (prostate); Homo sapiens): 14 µM
TGI (PC-3 (prostate); 48 h): 84.67 µg/mL (≈ 267 µM)
GI50 (786-0 (renal); Homo sapiens): 7.6 µM
cytotoxic efficacy [3]: did not demonstrate cytotoxic efficacy
GI50 (HaCaT (keratinocytes); Homo sapiens): 31.6 µM
GI50 (U251 (glioma, CNS); Homo sapiens, U-251, 48 h): 5.12 µM
GI50 (OVCAR-3 (ovarian); Homo sapiens, OVCAR-3, 48 h): 5.91 µM

COc1ccc(/C=N/NC(=O)c2cc(O)c(O)c(O)c2)cc1 [Compound 7, N'-(4-Methoxybenzylidene)galloyl hydrazide]
GI50 ([1]; Homo sapiens, NCI-H460, 48 h): 41.1 µM
GI50 [2, 4]: 11.3 µM
TGI [2, 5]: 66.56 µg/mL
GI50 (PC-3 (prostate); Homo sapiens): 19.6 µM
GI50 (786-0 (renal); Homo sapiens): 18.9 µM
GI50 (K-562 (leukemia); Homo sapiens, K562): 8.93 µM
TGI (K-562 (leukemia); [6]): 41.76 µg/mL
cytotoxic efficacy [3]: did not demonstrate cytotoxic efficacy
GI50 (HaCaT (keratinocytes); Homo sapiens): 18.1 µM
GI50 (U251 (glioma, CNS); Homo sapiens, U-251, 48 h): 9.14 µM
TGI (U251 (glioma, CNS)): 64.22 µg/mL (≈ 212 µM)
GI50 (OVCAR-3 (ovarian); Homo sapiens, OVCAR-3, 48 h): 5.98 µM
GI50 (HT-29 (colon); Homo sapiens, HT-29, 48 h): 25.1 µM
GI50 (MCF-7 (breast); Homo sapiens, MCF7): 15.7 µM

O=C(N/N=C/c1ccc(O)cc1)c1cc(O)c(O)c(O)c1 [Compound 8, N'-(4-Hydroxybenzylidene)galloyl hydrazide]
GI50 ([1]; Homo sapiens, NCI-H460, 48 h): 9.38 µM
GI50 (786-0 (renal); Homo sapiens): 26.8 µM
GI50 (K-562 (leukemia); Homo sapiens, K562): 9.17 µM
GI50 (HaCaT (keratinocytes); Homo sapiens): 8.72 µM
GI50 (U251 (glioma, CNS); Homo sapiens, U-251, 48 h): 6.6 µM
TGI (U251 (glioma, CNS)): 26.07 µg/mL (≈ 90.4 µM)
GI50 (OVCAR-3 (ovarian); Homo sapiens, OVCAR-3, 48 h): 1.35 µM

COc1cccc2c1C(=O)c1c(O)c3c(c(O)c1C2=O)C[C@@](O)(C(=O)CO)C[C@@H]3O[C@H]1C[C@H](N)[C@H](O)[C@H](C)O1 [Dox, Doxorubicin, reference compound]
GI50 ([1]; Homo sapiens, NCI-H460, 48 h): 0.01 µM
TGI [1]: 3.73 µg/mL (≈ 6.86 µM)
GI50 [2, 4]: 0.2 µM
TGI [2, 5]: 22.42 µg/mL
CC50 (PC-3 (prostate); Homo sapiens, 48 h, read-out: LC50): 7.95 µg/mL (≈ 14.6 µM)
GI50 (PC-3 (prostate); Homo sapiens): 0.18 µM
TGI (PC-3 (prostate); 48 h): 1.03 µg/mL (≈ 1.9 µM)
TGI (786-0 (renal)): 0.51 µg/mL (≈ 0.938 µM)
CC50 (786-0 (renal); Homo sapiens): 17.8 µg/mL (≈ 32.8 µM)
GI50 (786-0 (renal); Homo sapiens): 0.04 µM
CC50 (K-562 (leukemia); Homo sapiens, K562, 48 h, read-out: LC50): 20.1 µg/mL
GI50 (K-562 (leukemia); Homo sapiens, K562): 0.03 µM
TGI (K-562 (leukemia); [6]): 2.60 µg/mL
GI50 (HaCaT (keratinocytes); Homo sapiens): 0.01 µM
TGI (HaCaT (keratinocytes)): 0.77 µg/mL (≈ 1.42 µM)
GI50 (U251 (glioma, CNS); Homo sapiens, U-251, 48 h): 0.02 µM
TGI (U251 (glioma, CNS)): 2.68 µg/mL (≈ 4.93 µM)
GI50 (OVCAR-3 (ovarian); Homo sapiens, OVCAR-3, 48 h): 0.02 µM
TGI (OVCAR-3 (ovarian)): 1.47 µg/mL (≈ 2.7 µM)
TGI (HT-29 (colon)): 26.03 µg/mL (≈ 47.9 µM)
GI50 (HT-29 (colon); Homo sapiens, HT-29, 48 h): 0.09 µM
GI50 (MCF-7 (breast); Homo sapiens, MCF7): 0.01 µM
TGI (MCF-7 (breast); [7]): 2.52 µg/mL

Galloyl-2-methylthio-1,3,4-oxadiazole [Compound 10]
LC50 [1]: (65.78) µg/mL
GI50 ([1]; NCI-H460, 48 h): 9.44 µM
TGI [1]: 29.52 µg/mL
CC50 [2]: 19.7 µM
LC50 [2]: (19.65) µg/mL
TGI ([2]; NCI/ADR-RES): 2.33 µM
GI50 ([2]; NCI/ADR-RES, 48 h): 0.17 µM
TGI [2, 5]: 2.33 µg/mL
LC50 (PC-3 (prostate)): (69.30) µg/mL
GI50 (PC-3 (prostate)): 7.43 µM
TGI (PC-3 (prostate); 48 h): 28.45 µg/mL
GI50 (786-0 (renal)): 9.2 µM
TGI (786-0 (renal)): 29.40 µg/mL
CC50 (K-562 (leukemia)): 20.2 µM
LC50 (K-562 (leukemia)): (20.20) µg/mL
GI50 (K-562 (leukemia)): 0.6 µM
TGI (K-562 (leukemia); K-562, as printed in the text): 3.70 µM
TGI (K-562 (leukemia); [6]): 3.70 µg/mL
GI50 (HaCaT (keratinocytes)): 2.5 µM
TGI (HaCaT (keratinocytes)): 18.00 µg/mL
LC50 (U251 (glioma, CNS)): (30.43) µg/mL
GI50 (U251 (glioma, CNS); U251, 48 h, SRB): 5.2 µM
TGI (U251 (glioma, CNS)): 16.40 µg/mL
CC50 (OVCAR-3 (ovarian)): 17.3 µM
LC50 (OVCAR-3 (ovarian)): (17.34) µg/mL
TGI (OVCAR-3 (ovarian)): 2.38 µg/mL
LC50 (HT-29 (colon)): (60.32) µg/mL
GI50 (HT-29 (colon); HT-29, 48 h): 2.77 µM
TGI (HT-29 (colon)): 17.66 µg/mL
CC50 (MCF-7 (breast)): 20.2 µM
LC50 (MCF-7 (breast)): (20.24) µg/mL
GI50 (MCF-7 (breast)): 0.34 µM
TGI (MCF-7 (breast); MCF-7, as printed in the text): 3.20 µM
TGI (MCF-7 (breast); [7]): 3.20 µg/mL
